Data as given in PubChem BioAssay (NCI).
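How tested: cells in 96-well plates exposed to compound for 48 hours at five concentrations. TGI: total growth inhibition.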

Columns and labels:
Test in all cases: growth of human tumour cells (NCI), 48 h
SF-295 CNS = system: SF-295 CNS
RXF 393 renal = system: RXF 393 renal
SNB-19 CNS = system: SNB-19 CNS
HOP-62 NSCLC = system: HOP-62 NSCLC
HCT-15 colon = system: HCT-15 colon
MDA-MB-435 = system: MDA-MB-435
M14 melanoma = system: M14 melanoma
K-562 leukemia = system: K-562 leukemia
MDA-MB-231 breast = system: MDA-MB-231 breast
RPMI-8226 leukemia = system: RPMI-8226 leukemia
SK-MEL-5 melanoma = system: SK-MEL-5 melanoma
SK-MEL-2 melanoma = system: SK-MEL-2 melanoma
MDA-N = system: MDA-N
OVCAR-4 ovarian = system: OVCAR-4 ovarian
SK-OV-3 ovarian = system: SK-OV-3 ovarian
MALME-3M melanoma = system: MALME-3M melanoma
U251 CNS = system: U251 CNS
OVCAR-5 ovarian = system: OVCAR-5 ovarian
KM12 colon = system: KM12 colon
EKVX NSCLC = system: EKVX NSCLC
NCI-H460 lung = system: NCI-H460 lung
SR leukemia = system: SR leukemia
A549 NSCLC = system: A549 NSCLC
IGROV1 ovarian = system: IGROV1 ovarian
NCI-H226 lung = system: NCI-H226 lung
UACC-257 melanoma = system: UACC-257 melanoma
HT29 colon = system: HT29 colon
NCI-H23 lung = system: NCI-H23 lung
LOX IMVI melanoma = system: LOX IMVI melanoma
A498 renal = system: A498 renal
MOLT-4 leukemia = system: MOLT-4 leukemia
SK-MEL-28 melanoma = system: SK-MEL-28 melanoma
OVCAR-3 ovarian = system: OVCAR-3 ovarian
OVCAR-8 ovarian = system: OVCAR-8 ovarian
TK-10 renal = system: TK-10 renal
DU-145 prostate = system: DU-145 prostate
COLO 205 colon = system: COLO 205 colon
PC-3 prostate = system: PC-3 prostate
SNB-75 CNS = system: SNB-75 CNS
HL-60(TB) leukemia = system: HL-60(TB) leukemia
UO-31 renal = system: UO-31 renal
CCRF-CEM leukemia = system: CCRF-CEM leukemia
CAKI-1 renal = system: CAKI-1 renal
NCI/ADR-RES ovarian = system: NCI/ADR-RES ovarian
UACC-62 melanoma = system: UACC-62 melanoma
SW-620 colon = system: SW-620 colon
HOP-92 NSCLC = system: HOP-92 NSCLC
ACHN renal = system: ACHN renal
MCF7 breast = system: MCF7 breast
T-47D breast = system: T-47D breast
HCC-2998 colon = system: HCC-2998 colon

Measured: TGI

CCOC(=O)c1csc(NC(=O)CN2CCN(c3ccccc3)CC2)n1
> 100 µM: all assays above
